Results published in PMC12517401, “Design, synthesis, and antiproliferative activity of new 2-amino-pyrano[3,2-c]quinoline-3-carbonitriles as potential EGFR, BRAF^V600E, and HER-2 inhibitors” (RSC Advances, 2025).
Like-named read-outs stand apart in the source and are kept apart here.

How the values were obtained:
[1] = Cell viability assay (MTT) on MCF-10A normal cell line; assay type: cell-based; settings: human, MCF-10A mammary gland epithelial normal cells, MCF-10A cells, 50 μM of each compound, four days of incubation
Method: The human mammary gland epithelial (MCF-10A) normal cell line was used to examine the viability effects of new derivatives 5a–l using the MTT test.[33,34] Refer to Appendix A for more details.
The human mammary gland epithelium (MCF-10A) normal cell line was employed to evaluate the viability effects of novel derivatives 5a–l. The cell viability of 5a–l was assessed via the MTT assay following four days of incubation with 50 μM of each compound on MCF-10A cells.[33,34] […]
4.2. Biological evaluation
4.2.1 Cell Viability assay (MTT assay)
MTT assay was performed to investigate the effect of the synthesized compounds on mammary epithelial cells (MCF-10A). The cells were propagated in medium consisting of Ham's F-12 medium/ Dulbecco's modified Eagle's medium (DMEM) (1:1) supplemented with 10% foetal calf serum, 2 mM glutamine, insulin (10 μg/mL), hydrocortisone (500 ng/mL) and epidermal growth factor (20 ng/mL). Trypsin ethylenediamine tetra acetic acid (EDTA) was used to passage the cells after every 2-3 days. 96-well flat-bottomed cell culture plates were used to seed the cells at a density of 10^4 cells mL-1. The medium was aspirated from all the wells of culture plates after 24 h followed by the addition of synthesized compounds (in 200 μL medium to yield a final concentration of 0.1% (v/v) dimethyl sulfoxide) into individual wells of the plates. Four wells were designated to a single compound. The plates were allowed to incubate at 37°C for 96 h. Afterwards, the medium was aspirated and 3-[4,5-dimethylthiazol-2-yl]-2,5-diphenyltetrazolium bromide (MTT) (0.4 mg/mL) in medium was added to each well and subsequently incubated for 3 h. The medium was aspirated and 150 μL dimethyl sulfoxide (DMSO) was added to each well. The plates were vortexed followed by the measurement of absorbance at 540 nm on a microplate reader. The results were presented as inhibition (%) of proliferation in contrast to controls comprising 0.1% DMSO. […]

lung cancer (A-549) = test: Antiproliferative assay, A-549; assay type: cell-based; settings: Homo sapiens, A549; A-549 lung cancer cell line; read-out: Antiproliferative activity IC50 ± SEM (nM) A-549
Method: (§1) 4.2.2. Assay for antiproliferative effect
(§2) To explore the antiproliferative potential of compounds propidium iodide fluorescence assay was performed using different cell lines such as Panc-1 (pancreas cancer cell line), MCF-7 (breast cancer cell line), HT-29 (colon cancer cell line) and A-549 (epithelial cancer cell line), respectively. To calculate the total nuclear DNA, a fluorescent dye (propidium iodide, PI) is used which can attach to the DNA, thus offering a quick and precise technique. PI cannot pass through the cell membrane and its signal intensity can be considered as directly proportional to quantity of cellular DNA. Cells whose cell membranes are damaged or have changed permeability are counted as dead ones. The assay was performed by seeding the cells of different cell lines at a density of 3000-7500 cells/well (in 200μl medium) in culture plates followed by incubation for 24h at 37 °C in humidified 5%CO2/95% air atmospheric conditions. The medium was removed; the compounds were added to the plates at 10 μM concentrations (in 0.1% DMSO) in triplicates, followed by incubation for 48h. DMSO (0.1%) was used as control. After incubation, medium was removed followed by the addition of PI (25 μl, 50μg/mL in water/medium) to each well of the plates. At -80 °C, the plates were allowed to freeze for 24 h, followed by thawing at 25 °C. A fluorometer (Polar-Star BMG Tech) was used to record the readings at excitation and emission wavelengths of 530 and 620 nm for each well. The percentage cytotoxicity of compounds was calculated using the following formula:
(§3) Where ATC= Absorbance of treated cells and AC= Absorbance of control. Erlotinib was used as positive control in the assay. […]
(1 picture or pasted object on this page, not shown here)

breast cancer (MCF-7) = test: Antiproliferative assay, MCF-7; assay type: cell-based, human; settings: Homo sapiens, MCF7; MCF-7 breast cancer cell line; read-out: Antiproliferative activity IC50 ± SEM (nM) MCF-7
Method: as §1, §2, §3

[2] = test system: pancreatic cancer (Panc-1); test: Antiproliferative assay, Panc-1; assay type: cell-based; settings: Homo sapiens; Panc-1 pancreatic cancer cell line; read-out: Antiproliferative activity IC50 ± SEM (nM) Panc-1
Method: as §1, §2, §3

colon cancer (HT-29) = test: Antiproliferative assay, HT-29; assay type: cell-based; settings: Homo sapiens; HT-29 colon cancer cell line; read-out: Antiproliferative activity IC50 ± SEM (nM) HT-29
Method: as §1, §2, §3

[3] = test system: four human cancer cell lines (A-549, MCF-7, Panc-1, HT-29); test: Antiproliferative assay, average over four cancer cell lines (GI50); assay type: cell-based; settings: for GI50: GI50 = mean IC50 against the four cancer cell lines
Method: as §1
To explore the antiproliferative potential of compounds propidium iodide fluorescence assay was performed using different cell lines such as Panc-1 (pancreas cancer cell line), MCF-7 (breast cancer […]
calculate the total nuclear DNA, a fluorescent dye (propidium iodide, PI) is used which can attach to the DNA, thus offering a quick and precise technique. PI cannot pass through the cell membrane and its signal intensity can be considered as directly proportional to quantity of cellular DNA. Cells whose cell membranes are damaged or have changed permeability are counted as dead ones. The assay was performed by seeding the cells of different cell lines at a density of 3000-7500 cells/well (in 200μl […]
atmospheric conditions. The medium was removed; the compounds were added to the plates at 10 μM concentrations (in 0.1% DMSO) in triplicates, followed by incubation for 48h. DMSO (0.1%) was used as control. After incubation, medium was removed followed by the addition of PI (25 μl, 50μg/mL in water/medium) to each well of the plates. At -80 °C, the plates were allowed to freeze for 24 h, followed by thawing at 25 °C. A fluorometer (Polar-Star BMG Tech) was used to record the readings at excitation and emission wavelengths of 530 and 620 nm for each well. The percentage cytotoxicity of compounds was calculated using the following formula:
Where ATC= Absorbance of treated cells and AC= Absorbance of control. […]
positive control in the assay. […]

HER-2 [4] = target: T1, HER-2 (Homo sapiens, UniProt P04626); test: HER-2 inhibitory assay (ADP-Glo kinase assay); assay type: biochemical; settings: read-out: HER-2 inhibition IC50 ± SEM
T1 construct: purchased Abcam ab60866
T1 sequence (P04626 23-1255): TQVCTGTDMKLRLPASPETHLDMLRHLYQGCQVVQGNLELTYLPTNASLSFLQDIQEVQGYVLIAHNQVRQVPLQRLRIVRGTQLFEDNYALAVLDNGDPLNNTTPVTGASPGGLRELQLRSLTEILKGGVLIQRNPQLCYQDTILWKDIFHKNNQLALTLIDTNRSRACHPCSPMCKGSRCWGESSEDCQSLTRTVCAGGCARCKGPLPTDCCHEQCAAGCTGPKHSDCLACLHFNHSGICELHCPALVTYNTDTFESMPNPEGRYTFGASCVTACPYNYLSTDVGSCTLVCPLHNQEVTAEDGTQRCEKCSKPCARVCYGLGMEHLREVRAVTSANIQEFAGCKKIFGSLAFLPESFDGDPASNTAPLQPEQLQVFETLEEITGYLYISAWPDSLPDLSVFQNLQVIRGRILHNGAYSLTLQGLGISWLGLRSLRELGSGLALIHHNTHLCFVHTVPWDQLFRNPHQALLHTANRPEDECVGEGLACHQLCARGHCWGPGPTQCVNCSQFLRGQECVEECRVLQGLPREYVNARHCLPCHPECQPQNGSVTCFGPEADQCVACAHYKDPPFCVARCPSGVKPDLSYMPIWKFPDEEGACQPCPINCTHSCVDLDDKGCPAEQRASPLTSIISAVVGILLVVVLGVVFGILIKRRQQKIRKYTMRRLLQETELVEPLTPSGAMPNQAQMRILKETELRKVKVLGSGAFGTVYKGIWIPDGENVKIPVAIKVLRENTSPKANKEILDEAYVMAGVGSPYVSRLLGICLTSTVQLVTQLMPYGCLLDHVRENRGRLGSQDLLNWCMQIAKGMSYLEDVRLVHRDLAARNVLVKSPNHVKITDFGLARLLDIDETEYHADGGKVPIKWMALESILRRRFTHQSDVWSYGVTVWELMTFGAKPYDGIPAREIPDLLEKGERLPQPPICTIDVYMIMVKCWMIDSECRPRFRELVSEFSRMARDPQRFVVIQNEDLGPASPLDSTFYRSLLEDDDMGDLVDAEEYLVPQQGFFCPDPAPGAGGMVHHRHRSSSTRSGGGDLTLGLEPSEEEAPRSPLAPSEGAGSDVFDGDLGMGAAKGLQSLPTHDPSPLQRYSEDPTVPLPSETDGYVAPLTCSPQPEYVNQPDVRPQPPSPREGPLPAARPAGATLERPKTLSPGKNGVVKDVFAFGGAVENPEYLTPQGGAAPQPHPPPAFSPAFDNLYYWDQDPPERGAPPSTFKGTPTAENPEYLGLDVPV
Method: The results are presented as IC50 values. Lapatinib served as the reference medication. Appendix A describes more experimental details.
Lapatinib functioned as the reference drug. […]
4.2.5. HER-2 inhibitory assay
The ADP-Glo™ Kinase Assay was used for kinase activity detection, related kinases information:
HER-2 (ab60866, Abcam), with a concentration of 100 ng/mL. Target compounds were dissolved in DMSO to obtain drug solutions with different concentrations, and the compound concentrations in the final reaction system (100 μL) were 1 nM, 20 nM, 40 nM, 80 nM, and 100 nM, respectively. 10μL of the solution containing compounds was transferred to a 96-well plate, then added 40 μL of 1 × kinase buffer (50 mM HEPES, pH 7.5) to each well, and mixed the mixture in the 96-well plate on a shaker for 10 min. Next, added 25 μL of ADP-Glo™ reagent to the above wells, mixed and incubated for another 40 min. Distributed 10 μL kinase detection reagent to the reaction and incubated for 30 min. Finally, the full-wavelength microplate reader was used to record the OD value.
4.3. Statistical analysis
Computerized Prism 5 program was used to statistically analyzed data using one-way ANOVA test followed by Tukey’s as post ANOVA for multiple comparison at P ≤.05. Data were presented as […]

EGFR [5] = target: T2, EGFR (Homo sapiens, UniProt P00533); test: EGFR-TK inhibitory assay
T2 sequence (P00533 669-1210): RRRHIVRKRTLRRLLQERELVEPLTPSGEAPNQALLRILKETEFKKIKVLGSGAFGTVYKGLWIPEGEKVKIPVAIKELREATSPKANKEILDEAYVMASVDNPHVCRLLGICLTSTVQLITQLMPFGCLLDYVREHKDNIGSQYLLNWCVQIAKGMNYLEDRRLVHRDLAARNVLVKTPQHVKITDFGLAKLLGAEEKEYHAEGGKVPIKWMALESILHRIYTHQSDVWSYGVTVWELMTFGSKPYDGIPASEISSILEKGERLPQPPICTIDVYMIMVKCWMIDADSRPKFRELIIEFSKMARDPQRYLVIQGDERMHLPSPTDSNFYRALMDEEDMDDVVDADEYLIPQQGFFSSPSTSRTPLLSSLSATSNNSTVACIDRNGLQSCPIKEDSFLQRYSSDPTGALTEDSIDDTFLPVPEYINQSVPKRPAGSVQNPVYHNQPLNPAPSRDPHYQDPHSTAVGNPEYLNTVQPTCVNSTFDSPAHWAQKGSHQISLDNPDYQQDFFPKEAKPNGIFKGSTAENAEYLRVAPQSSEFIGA

BRAF^V600E [6] = target: BRAF^V600E (Mus musculus, UniProt P28028, V585E); test: BRAF^V600E inhibitory assay
Chain of BRAF^V600E (Mus musculus, UniProt P28028, V585E) (P28028 whole entry V585E): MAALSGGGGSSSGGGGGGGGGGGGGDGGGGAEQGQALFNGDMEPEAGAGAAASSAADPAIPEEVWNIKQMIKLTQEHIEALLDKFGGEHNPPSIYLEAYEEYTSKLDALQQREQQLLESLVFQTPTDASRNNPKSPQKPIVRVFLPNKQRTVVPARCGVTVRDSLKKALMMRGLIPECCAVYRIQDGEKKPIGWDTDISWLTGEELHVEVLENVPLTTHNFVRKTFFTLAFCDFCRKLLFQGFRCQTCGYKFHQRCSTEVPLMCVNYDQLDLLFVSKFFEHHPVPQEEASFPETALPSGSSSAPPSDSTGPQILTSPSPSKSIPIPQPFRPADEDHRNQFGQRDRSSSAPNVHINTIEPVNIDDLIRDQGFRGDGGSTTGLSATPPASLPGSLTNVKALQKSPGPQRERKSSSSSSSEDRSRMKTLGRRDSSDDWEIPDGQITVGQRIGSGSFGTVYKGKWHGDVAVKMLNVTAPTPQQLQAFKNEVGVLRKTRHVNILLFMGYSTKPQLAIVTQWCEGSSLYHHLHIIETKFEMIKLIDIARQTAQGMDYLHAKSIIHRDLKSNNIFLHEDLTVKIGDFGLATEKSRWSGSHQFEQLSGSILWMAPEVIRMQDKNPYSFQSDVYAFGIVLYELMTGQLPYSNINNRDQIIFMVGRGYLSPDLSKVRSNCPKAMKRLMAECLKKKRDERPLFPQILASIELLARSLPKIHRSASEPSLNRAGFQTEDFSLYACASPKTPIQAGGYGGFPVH
Chain of BRAF^V600E (P28028 whole entry V585E): as above

BRAF^V600E [7] = test: BRAF^V600E inhibitory assay; settings: ratio of BRAF^V600E IC50 versus erlotinib
[8] = test system: four human cancer cell lines; parameters: method as in doi:10.1016/j.molstruc.2023.136953; settings: earlier study of the authors; read-out: GI50 against the four cancer cell lines; cited from earlier work
EGFR [9] = target: T2, EGFR; parameters: 645–1186; His6 (N); made in house; host or cells: Sf-9 insect cells (baculovirus; pBlueBacHis2B / pFASTBacHTc); method as in doi:10.1016/j.molstruc.2023.136953; settings: earlier study of the authors; cited from earlier work
HER-2 [10] = target: T1, HER-2; parameters: method as in PMID 39434991; settings: earlier study of the authors; read-out: HER-2 inhibitory IC50; cited from earlier work
EGFR [11] = target: T2, EGFR; parameters: 645–1186; His6 (N); made in house; host or cells: Sf-9 insect cells (baculovirus; pBlueBacHis2B / pFASTBacHTc); method as in PMID 39434991; settings: earlier study of the authors; read-out: EGFR inhibitory IC50; cited from earlier work
BRAF^V600E [12] = test system: BRAF^V600E; parameters: method as in doi:10.1016/j.molstruc.2023.136953; settings: earlier study of the authors; cited from earlier work
BRAF^V600E [13] = test system: BRAF^V600E; parameters: method as in PMID 33279248; settings: earlier study of the authors; cited from earlier work

IC50 (lung cancer (A-549)) [nM]	IC50 (breast cancer (MCF-7)) [nM]	IC50 [2] [nM]	IC50 (colon cancer (HT-29)) [nM]	GI50 ([3]; Homo sapiens) [nM]	IC50 (HER-2 [4]) [nM]	IC50 (EGFR [5]) [nM]	IC50 (BRAF^V600E [6]) [nM]	Fold reduced potency compared to erlotinib, BRAF^V600E (BRAF^V600E [7]) [fold]	SMILES	viability at 4 days, 50 µM [1] [%]	GI50 [8] [nM]	also measured
28 ± 2	26 ± 2	29 ± 2	29 ± 2	26	23 ± 1	75 ± 4	67 ± 3	1.1	COc1ccc(C2C(C#N)=C(N)Oc3c2c(=O)[nH]c2ccc(OC)cc32)cc1 (stereo not drawn) [Compound 5h, 2-Amino-9-methoxyl-4-(4-methoxylphenyl)-5-oxo-5,6-dihydro-4H-pyrano[3,2-c]quinoline-3-carbonitrile]	91	–	GI50 [3]: 28 nM; Times more effective than erlotinib (GI50) ([3]; ratio of GI50 versus erlotinib, four cancer cell lines): 1.25 fold
30 ± 2	27 ± 2	31 ± 2	33 ± 2	30	31 ± 2	78 ± 4	74 ± 4	1.3	COc1ccc(C2C(C#N)=C(N)Oc3c2c(=O)n(C)c2ccccc32)cc1 (stereo not drawn) [Compound 5i, 2-Amino-6-methyl-4-(4-methoxylphenyl)-5-oxo-5,6-dihydro-4H-pyrano[3,2-c]quinoline-3-carbonitrile]	90	–	–
–	–	–	–	–	–	–	–	–	CC(=NO)c1ccc(NC(=O)c2cc(-c3ccc(S(C)(=O)=O)cc3)nc3ccccc23)cc1 [Compound II]	–	1200	IC50 (EGFR [9]): 105 ± 10 nM
–	–	–	–	–	–	–	–	–	O=c1[nH]c2ccccc2c(O)c1/C=N/c1ccc(NS(=O)(=O)c2ncccn2)cc1 [Compound I]	–	–	IC50 (HER-2 [10]): 31 nM; IC50 (EGFR [11]): 71 nM
–	–	–	–	–	–	–	–	–	COc1cccc2c1C(=O)c1c(O)c3c(c(O)c1C2=O)C[C@@](O)(C(=O)CO)C[C@@H]3O[C@H]1C[C@H](N)[C@H](O)[C@H](C)O1 [doxorubicin]	–	1400	–

SMILES	IC50 (lung cancer (A-549)) [nM]	IC50 (breast cancer (MCF-7)) [nM]	IC50 [2] [nM]	IC50 (colon cancer (HT-29)) [nM]	GI50 ([3]; Homo sapiens) [nM]	IC50 (HER-2 [4]) [nM]	IC50 (EGFR [5]) [nM]	IC50 (BRAF^V600E [6]) [nM]	Fold reduced potency compared to erlotinib, BRAF^V600E (BRAF^V600E [7]) [fold]	viability at 4 days, 50 µM [1] [%]	GI50 [8] [nM]	also measured
C#Cc1cccc(Nc2ncnc3cc(OCCOC)c(OCCOC)cc23)c1 [Erlotinib, reference compound]	30 ± 3	40 ± 3	30 ± 3	30 ± 3	–	–	–	–	–	–	–	IC50 (BRAF^V600E [12]): […]; IC50 (BRAF^V600E [13]): […]
